Experimental data published in patent EP0382538A2, “A process for the preparation of cysteine-rich polypeptides, including echistatin” (MERCK & CO. INC., priority 1989, dated 1990).

Columns and labels:
[1] = Preliminary in vivo antithrombotic studies
[2] = tested on: HUMAN PLATELET AGGREGATION; experiment: Platelet aggregation assay (ADP-initiated, fibrinogen-dependent, Chronolog aggregometer); format: cell-based; conditions: inhibition of rate of human platelet aggregation by 50%; washed platelets 2 x 10⁸/ml, fibrinogen 100 µg/mL, Ca²⁺ 1 mM, 10 µM ADP, 37°C; platelets from 2-4 donors, duplicate; read-out: IC₅₀(µM) (95% CONFIDENCE LIMITS)
Protocol: Platelet aggregation was measured at 37°C in a Chronolog aggregometer. The reaction mixture contained washed platelets (2 x 10⁸/ml), fibrinogen (100 µg/mL), Ca²⁺ (1 mM), and the platelet aggregation inhibitor fraction to be tested. The aggregation was initiated by adding 10 µM ADP 1 min after the other components had been added. The reaction was allowed to proceed for at least 2 min. The extent of inhibition of aggregation was expressed as the percentage of the rate of aggregation observed in the absence of inhibitor. […]
The concentration of peptide necessary to inhibit the rate of human platelet aggregation by 50% (IC₅₀) was determined using platelets from 2-4 donors. Determinations were performed in duplicate for each donor.

[3] = tested on: platelet aggregation; experiment: Platelet aggregation initiated by other agonists; format: cell-based; conditions: aggregation initiated by thrombin, epinephrin, collagen, or platelet activating factor

Echistatin [Synthetic Echistatin]
antithrombotic effect in vivo [1]: very effective antithrombotic agent
IC50 [2]: 0.033 µM
prevention of platelet aggregation [3]: prevents aggregation
